According to PubChem BioAssay (NCI):
Several values for one entry are separate records, joined by “and”; a condition that tells them apart may be missing. Equal entries are not always repeated.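 The compound was tested at five concentrations on cells cultured in 96-well plates, with a 48-hour exposure period. Here, GI50 denotes the concentration required for 50% inhibition of growth. At the TGI there is no net growth.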

Columns and labels:
Assay in all cases: NCI tumour cell line growth inhibition, 48 h
TK-10 renal = tested on: TK-10 renal
OVCAR-3 ovarian = tested on: OVCAR-3 ovarian
HS 578T breast = tested on: HS 578T breast
HT29 colon = tested on: HT29 colon
UACC-257 melanoma = tested on: UACC-257 melanoma
HOP-62 NSCLC = tested on: HOP-62 NSCLC
SNB-19 CNS = tested on: SNB-19 CNS
IGROV1 ovarian = tested on: IGROV1 ovarian
DU-145 prostate = tested on: DU-145 prostate
M14 melanoma = tested on: M14 melanoma

Compound	TGI (TK-10 renal)	TGI (OVCAR-3 ovarian)	TGI (HS 578T breast) [µM]	TGI (HT29 colon)	TGI (UACC-257 melanoma)	TGI (HOP-62 NSCLC)	TGI (SNB-19 CNS) [µM]	TGI (IGROV1 ovarian)	TGI (DU-145 prostate) [µM]	TGI (M14 melanoma)	GI50 (TK-10 renal) [µM]	GI50 (HS 578T breast) [µM]	GI50 (HT29 colon) [µM]	GI50 (UACC-257 melanoma) [µM]	GI50 (SNB-19 CNS) [µM]	GI50 (IGROV1 ovarian) [µM]
Cc1c(S(=O)(=O)/N=C(\N)Nc2ccc(Cl)cc2)sc2ccc(Cl)cc12	39.5 µM	36.5 µM	59	38.8 µM	40.4 µM	36.9 µM	57.4	31.9 µM	36.2	37.9 µM						
CCOc1cc(C2CC(c3ccc(NS(=O)(=O)c4cc([N+](=O)[O-])ccc4C)cc3)=NN2C(=O)c2ccccc2)ccc1O (centres undefined)	54.2 µM	36.3 µM	> 100	> 100 µM	91.5 µM	47.2 µM	> 100	> 100 µM	> 100	76.1 µM						
C=CCOC(=O)CC[N+]1=CCC(c2ccccc2)(c2ccccc2)O1	> 100 µM	> 100 µM	> 100	> 100 µM	> 100 µM	> 100 µM	> 100	> 100 µM	> 100	> 100 µM						
CCCNC(=O)CCC(C)[C@H]1CCC2C3C(C[C@H](OC(C)=O)[C@@]21C)[C@@]1(C)CCC2(C[C@H]1C[C@H]3OC(C)=O)OOC1(CCC(C)CC1)OO2 (some centres undefined)	58.8 µM	18.5 µM	> 100	> 100 µM	90.9 µM	3.47 µM	> 100	4.36 µM	21.2	> 100 µM						
Oc1ccccc1/C=N/c1nc2cc3sc(/N=C/c4ccccc4O)nc3cc2s1	> 100 µM	> 100 µM	> 89	> 100 µM	> 100 µM	> 100 µM	> 100	> 100 µM	> 100	> 100 µM						
O=C(N=Nc1cc(Cl)ccc1Cl)NNc1cc(Cl)ccc1Cl		32.7 µM	52.6	37 µM		40.7 µM		57.3 µM	> 100	32.5 µM						
COc1ccc2nc3cc(Cl)ccc3c(NCCCNCCCNc3c4ccc(Cl)cc4nc4ccc(OC)cc34)c2c1	0.588 µM	0.61 µM		0.231 µM	1.76 µM	0.14 µM	0.314		0.156	0.157 µM						
O=C1C=CC(=O)N1Nc1ccc([N+](=O)[O-])cc1[N+](=O)[O-]	> 100 µM	> 100 µM		> 100 µM	> 100 µM	> 100 µM	> 100	> 100 µM		40 µM						
COc1cc([N+](=O)[O-])c(OC)cc1-c1nc2sc(Cl)cn2c1/C=N/Nc1ccccn1	> 50 µM		> 50	> 50 µM	> 50 µM		> 50	> 50 µM			15.6	16.8	> 50	> 50	> 50	> 50
Cc1cn(C2OC(C)(CO)C(O)C2O)c(=O)[nH]c1=O (centres undefined)	> 100 µM	> 100 µM		> 100 µM		> 100 µM	> 100	> 100 µM		> 100 µM						
N#C/C(=C\c1cc(Br)c(O)c(Br)c1)c1cccnc1	87.2 µM	44 µM		> 100 µM	73.5 µM	97.2 µM	> 100	> 100 µM	> 100	> 100 µM						
Cc1c(C(=O)CSc2nc3ccccc3c(=O)n2-c2ccccc2)c(=O)n(-c2ccccc2)n1C	> 100 µM	73.5 µM		> 100 µM	> 100 µM	69.1 µM	> 100	> 100 µM		> 100 µM						
CC(O)C1CC1(CO)CNc1cc(Cl)nc(N)n1 (centres undefined)	> 100 µM	> 100 µM	> 100	> 100 µM	> 100 µM	> 100 µM	> 100	> 100 µM	> 100							
CC(C(=O)n1nnc2ccccc21)N(c1ccccc1)c1ccccc1 (centres undefined)	> 100 µM	> 100 µM		> 100 µM	> 100 µM	> 100 µM	> 100	> 100 µM		> 100 µM						
Cc1cc2[nH]c3[nH]c(=O)[nH]c(=O)c3c2cc1C	> 100 µM		> 100	> 100 µM	> 100 µM	> 100 µM	> 100	> 100 µM	> 100	> 100 µM						
CN(C)C(=S)S	> 100 µM	28.3 µM	> 100	> 100 µM	> 100 µM		> 100	> 100 µM	> 100	> 100 µM						
CCOC(=O)/C=C(\C)c1ccc(C)cc1C	> 100 µM			> 100 µM	> 100 µM		> 100	> 100 µM		> 100 µM						
CC(C)(C)NC(=O)/C(=C\Sc1ccccc1)c1ccc2c(c1)OCO2	> 100 µM	> 100 µM		35.9 µM	74.5 µM	> 100 µM	> 100	> 100 µM	> 100	54.8 µM						
O=C(NCCCN(CCCCN(CCCNC(=O)C(F)(F)F)Cc1ccccc1)Cc1ccccc1)C(F)(F)F	53.5 µM		31.4	19.2 µM	16.9 µM		26.6	26.2 µM	56.2	12.1 µM						
C=CCNC(=S)/N=C/c1c(O)c2ccccc2oc1=O	> 100 µM	> 100 µM		> 100 µM	> 100 µM		> 100	> 100 µM		> 100 µM						
O=[N+]([O-])/C(C(Cl)=C(Cl)Cl)=C(\Nc1cccc2cccnc12)SCc1ccccc1		32.8 µM	19.3	48.5 µM	49.2 µM	33.6 µM	42		39.6	74.3 µM						
O=c1ccc2cc3ccc4cccc5ccc(c2o1)c3c45	> 100 µM			> 100 µM			> 100	> 100 µM		> 100 µM						
CC[C@H]1CN2CCc3cc(OC)c(OC)cc3[C@@H]2C[C@@H]1C[C@H]1NCCc2cc(OC)c(OC)cc21	0.0784 µM and 0.309 µM	0.187 µM and 0.18 µM	0.0665	0.242 µM and 0.168 µM	0.361 µM and 0.529 µM	0.216 µM and 0.221 µM		0.0935 µM and 0.277 µM	0.0643	0.0512 µM and 0.0606 µM						
O=C1/C(=C\c2cccc(Oc3ccccc3)c2)S(=O)(=O)C(c2ccccc2)N1Cc1ccccc1 (centres undefined)	> 100 µM	34.2 µM	40.5		62.2 µM	> 100 µM	55.6		74	76.6 µM						
